Measured values reported in PubChem BioAssay (NCI).
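Briefly, cells in 96-well plates were exposed to five compound concentrations for 48 h, and endpoints were estimated by linear interpolation. GI50: concentration for 50% inhibition of growth. TGI is the concentration that stops growth completely.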

Columns and labels:
Assay in all cases: NCI-60 cell line screen, 48 h
OVCAR-4 ovarian = test system: OVCAR-4 ovarian
CCRF-CEM leukemia = test system: CCRF-CEM leukemia
HCC-2998 colon = test system: HCC-2998 colon
HCT-116 colon = test system: HCT-116 colon
MALME-3M melanoma = test system: MALME-3M melanoma
LOX IMVI melanoma = test system: LOX IMVI melanoma
TK-10 renal = test system: TK-10 renal
SW-620 colon = test system: SW-620 colon
OVCAR-5 ovarian = test system: OVCAR-5 ovarian
UO-31 renal = test system: UO-31 renal
SK-MEL-28 melanoma = test system: SK-MEL-28 melanoma
HS 578T breast = test system: HS 578T breast
PC-3 prostate = test system: PC-3 prostate
T-47D breast = test system: T-47D breast
MCF7 breast = test system: MCF7 breast
MDA-MB-231 breast = test system: MDA-MB-231 breast
MDA-N = test system: MDA-N

SMILES	TGI (OVCAR-4 ovarian) [µM]	TGI (CCRF-CEM leukemia) [µM]	TGI (HCC-2998 colon) [µM]	TGI (HCT-116 colon) [µM]	TGI (MALME-3M melanoma) [µM]	TGI (LOX IMVI melanoma) [µM]	TGI (TK-10 renal) [µM]	TGI (SW-620 colon) [µM]	TGI (OVCAR-5 ovarian) [µM]	TGI (UO-31 renal) [µM]	TGI (SK-MEL-28 melanoma) [µM]	TGI (HS 578T breast) [µM]	TGI (PC-3 prostate) [µM]	TGI (T-47D breast) [µM]	TGI (MCF7 breast) [µM]	TGI (MDA-MB-231 breast) [µM]	TGI (MDA-N) [µM]	GI50 (CCRF-CEM leukemia) [µM]	GI50 (MALME-3M melanoma) [µM]
CCC1(N=[N+]=[N-])C(=O)Nc2cc(C)ccc2C1=O (configuration not stated)	> 100	> 100	> 100	> 100	> 100	> 100	> 100	> 100	> 100	> 100	> 100								
S=C(Nc1cccc(Cl)c1)Nc1ccccn1	> 100	> 100		> 100	> 100	> 100	> 100	> 100	> 100	> 100	> 100	> 100	> 100	> 100	> 100				
O=C1CCCC2=C1CC1=C(CCCC1=O)N2c1cccc2ccccc12	> 100	> 100	> 100			> 100	> 100	> 100	> 100	> 100	> 100	> 100	> 100		> 100				
N#CC12C3C4CC5C6C4C1C6C(O)(C53)N2Cc1ccccc1 (configuration not stated)	> 100	> 100	> 100	> 100	> 100	> 100	> 100	> 100	> 100	> 100	> 100								
COC(=O)c1c(C(=O)OC)c2cc(C(=O)c3ccccc3)ccn2c1Cl	> 100	78	> 100	> 100	> 100	> 100	> 100	> 100	> 100	89.8	> 100								
CC1NC(/C(=C/c2ccccc2O)NC(=O)c2ccccc2)OC1=O (configuration not stated)	> 50	> 50	> 50	> 50	> 50	> 50	> 50	> 50	> 50	> 50	> 50		> 50	> 50	> 50	> 50	> 50		
COc1ccc(CN(CCc2c[nH]c3ccccc23)Cc2ccc(OC)cc2)cc1	12.7	> 100	43.1		8.82		3.97	> 22	9.62	6.8	> 80.4	63	13		> 100				
COC(=N)C12C(N)=NC(OC)(OC)C1(C#N)C21C(=O)N(c2ccccc2)N=C1C (configuration not stated)	> 100	> 100	> 100	> 100	> 100			> 100	> 100	> 100	> 100		> 100	> 100	> 100	> 100	> 100		
C=C1C(=O)C23CC1C[C@H](OC(C)=O)C2C1(C)C(OC(C)=O)C[C@H](O)C(C)(C)[C@H]1C(O)[C@@H]3OC(C)=O (some centres not stated)	25.7	8.25	36.9	16.2	19.9	30.3	17	6.14	28.8	31.2	24.4	41.9	26.5	24.8	19.4	18.6			
CC(C)(C)[C@H]1CO[C@]2(C)[C@@H]3C[C@@H]3C(=O)N12	> 100	> 100	> 100	> 100	> 100	> 100	> 100	> 100	> 100	> 100	> 100								
CCOC(=O)c1nc2ccc(C(F)(F)F)cc2nc1Oc1ccc(F)cc1	> 100	> 100	> 100	> 100		> 100	> 100	> 100		> 100	> 100	> 100	> 100	> 100	> 100	> 100			
O=C(c1ccncc1)n1nc(-c2ccccc2)c(N=Nc2ccc([N+](=O)[O-])cc2)c1-c1ccccc1	28.2		> 100	> 100	> 100		> 100	> 100		86.2	> 100								
O=c1cc(-c2cccc(OC(F)(F)F)c2)[nH]c2cc3c(cc12)OCO3			0.157	34.6	> 100		> 100	> 100	> 100		> 100	4.9	> 100	> 100	> 100				
COC1OC(CO)C(O)C(OC(=O)c2cc(O)c(O)c(O)c2)C1OC(=O)c1cc(O)c(O)c(O)c1 (configuration not stated)	90.4	> 100		> 100	> 100	68.2	> 100	> 100	> 100	> 100	> 100	> 100	> 100		> 100	> 100	55.7		
COc1ccc2c3ccc4c(c3n(C)c2c1)C(=O)c1ccccc1C4=O	> 100	> 100	> 100	> 100	> 100			> 100		> 100	> 100								
Cc1cc2oc(=O)[nH]c(=S)c2c(C)c1C	> 100	> 100	> 100	> 100	> 100	> 100	> 100	> 100		> 100	> 100								
C=C[C@@]1(C)CC(=O)[C@]2(O)[C@@]3(C)[C@@H](OC(C)=O)CCC(C)(C)[C@@H]3[C@H](OC(C)=O)[C@H](OC(C)=O)[C@@]2(C)O1	> 100		> 100	> 100		> 100		> 100	> 100	> 100	> 100		> 100	> 100	> 100	> 100	> 100		

SMILES	TGI (OVCAR-4 ovarian) [µM]	TGI (CCRF-CEM leukemia) [µM]	TGI (HCC-2998 colon) [µM]	TGI (HCT-116 colon) [µM]	TGI (MALME-3M melanoma) [µM]	TGI (LOX IMVI melanoma) [µM]	TGI (TK-10 renal) [µM]	TGI (SW-620 colon) [µM]	TGI (OVCAR-5 ovarian) [µM]	TGI (UO-31 renal) [µM]	TGI (SK-MEL-28 melanoma) [µM]	TGI (HS 578T breast) [µM]	TGI (PC-3 prostate) [µM]	TGI (T-47D breast) [µM]	TGI (MCF7 breast) [µM]	TGI (MDA-MB-231 breast) [µM]	TGI (MDA-N) [µM]	GI50 (CCRF-CEM leukemia) [µM]	GI50 (MALME-3M melanoma) [µM]
CC(C)CCC[C@@H](C)C1CCC2[C@@H]3CCC4CC(CCC=C(c5cc(Cl)c(OC(=O)c6ccccc6)c(C(=O)O)c5)c5cc(Cl)c(OC(=O)c6ccccc6)c(C(=O)O)c5)CC[C@]4(C)C3CC[C@@]21C (some centres not stated)	> 100	> 100	> 100	> 100	> 100		> 100	> 100	> 100	> 100		> 100	> 100		> 100	26.5	> 100		
CCN(CC)Cc1cc(Nc2c3ccccc3nc3c2[nH]c2ccccc23)ccc1O	3.32			1.91	3.31	2.57	8.61	3.43	3.64	3.56	3.47								
Cc1cc(Cl)ccc1N=NC(=O)NNc1ccc(Cl)cc1C	38.6	58.5	24.1	26.7	37.9	30.6	38.3	30.2	30.7	29.6	30.7		22.8	26.6		26.6	30.3		
O=C1CCC2SC1CCC2=O	> 100	> 100	> 100	> 100	> 100	> 100	> 100	> 100	> 100	> 100	> 100		> 100		> 100	> 100			
COc1ccc(C2C(Cl)C(=O)N2NC(=O)Cc2ccccc2)cc1 (configuration not stated)	> 100	> 100	> 100	> 100	> 100	> 100	> 100	> 100	> 100	> 100	> 100								
CCOC(=O)c1c(NC(=O)Nc2ccccc2)c(C(N)=O)c2n1CCCCC2	> 100	> 100	> 100	> 100		> 100	> 100	> 100		> 100	> 100	> 100	> 100	> 100	> 100	> 100			
CCCNC(=S)/N=C\c1c(O)c2ccccc2oc1=O	> 100	> 100	> 100	> 100	> 100	> 100	> 100	> 100	> 100	> 100	> 100	> 100	> 100		> 100	> 100	> 100		
O=C(Cc1ccccc1)c1ccc2[nH]c(=O)oc2c1		> 100		> 100		> 100	> 100	> 100	> 100		> 100	22.9	> 100		> 100	> 100	> 100		
CCOC(=O)CCC(NC(=O)c1ccc(Nc2nc3cc(C(F)(F)F)ccc3nc2-c2ccccc2)cc1)C(=O)OCC (configuration not stated)	> 100	> 100	> 100	> 100	> 100	> 100	> 100	> 100	> 100	> 100	> 100	> 100	> 100	> 100	> 100	> 100			
COc1cc2[nH]c(-c3cccc(N(C)C)c3)cc(=O)c2cc1OC	> 100	> 100	7.5	> 100	> 100	> 100	> 100	> 100	> 100	> 100	> 100								
CC1[C@@H](OCc2ccccc2)COC(=O)N1Cc1ccccc1 (some centres not stated)	> 100	> 100		> 100	> 100	> 100	> 100	> 100	> 100	> 100	> 100	> 100	> 100		> 100	> 100	> 100		
CC(=O)c1ccc2c(c1)oc(=O)n2CCN1CCCCC1		> 100		> 100	> 100	> 100	> 100	> 100	> 100		> 100	> 100	> 100		> 100	> 100	> 100		
CC1=NN(C(=O)Cc2ccccc2)C(=O)/C1=C\C=C\c1ccccc1	> 100	> 100	> 100	> 100	> 100	> 100	> 100	> 100	> 100	> 100	> 100								
[N-]=[N+]=NC1C(Br)C(=O)NC(=O)N1[C@H]1C[C@H](O)[C@@H](CO)O1 (some centres not stated)	> 100	> 100	> 100		> 100	> 100	> 100	> 100	> 100	> 100	> 100							38	15.5
CCN(CC)CCS(=O)c1c2cc(OC)ccc2nc2ccc(OC)cc12 (configuration not stated)	29.7	> 25.6	40.7	4.55	2.51	> 42.9	11.7	> 21.9	36.1	5.43	34.4	29.1	26.9	4.04	> 24.9	28.4			
COC(=O)C1(O)c2ccccc2N=C2C(=O)c3ccccc3N21 (configuration not stated)	> 100	> 100	> 100	> 100	> 100	> 100	> 100	> 100	> 100	> 100	> 100	> 100	> 100		> 100	> 100	41.8		
